Assay results as given in patent US20100222421A1, “Usage of Baicalein in the Preparation of a Pharmaceutical Composition for the Treatment of Traumatic Brain Injury” (National Defense Medical Center, priority 2009, published 2010).

Key:
Type in all cases: in vivo, rat
[1] = test system: IL-6 protein; experiment: ELISA, IL-6 protein after CCI injury; details: single-dose 30 mg kg^-1 i.p.; ipsilateral cortex, 1 day post-injury; P<0.01
Procedure: A previously described CCI injury procedure was utilized (Chen et al., 2003). Male Sprague-Dawley rats, which have body weight of 250-300 g, were anaesthetized with sodium pentobarbital (i.p.; 50 mgkg^−1; Rhone Merieux, Harlow, UK) and placed in a stereotaxic frame. A 5-mm craniotomy was performed over the left parietal cortex, centered on the coronal suture and 3 mm lateral to the sagittal suture. Considerable care was taken to avoid injury to the underlying dura. Injury was made using a pneumatic piston with a rounded metal tip (2.5 mm diameter) that was angled 22.5° C. to the vertical so that the tip was perpendicular with the brain surface at the centre of the craniotomy. A velocity of 4 ms^−1 and a deformation depth 2 mm below the dura were used. […] Body temperature was monitored throughout the surgery by a rectal probe; temperature was maintained at 37.0±0.5° C. using a heated pad. […]
Single-dose baicalein (30 mg kg^−1) or a corresponding volume of vehicle was administered i.p. immediately following injury. […] Testing after injury was as follows: (1) real-time quantitative RT-PCR analysis for TNF-α, IL-1β and IL-6 mRNA expression at 6 h post-injury (n=7 for each group); (2) FluoroJade B (FJB) staining, TNF-α, IL-1β and IL-6 immunohistochemistry, as well as ELISA at 24 h post-injury to assess degenerative neurons and to determine cytokine expression (n=7 for each group). […]

[2] = test system: IL-1β-positive cells; experiment: Immunohistochemistry, IL-1β-positive cells after CCI injury; details: single-dose 30 mg kg^-1 i.p.; cortical tissue adjacent to contusion core, 1 day post-injury
Procedure: (§1) A previously described CCI injury procedure was utilized (Chen et al., 2003). Male Sprague-Dawley rats, which have body weight of 250-300 g, were anaesthetized with sodium pentobarbital (i.p.; 50 mgkg^−1; Rhone Merieux, Harlow, UK) and placed in a stereotaxic frame. A 5-mm craniotomy was performed over the left parietal cortex, centered on the coronal suture and 3 mm lateral to the sagittal suture. Considerable care was taken to avoid injury to the underlying dura. Injury was made using a pneumatic piston with a rounded metal tip (2.5 mm diameter) that was angled 22.5° C. to the vertical so that the tip was perpendicular with the brain surface at the centre of the craniotomy. A velocity of 4 ms^−1 and a deformation depth 2 mm below the dura were used. The bone flap was immediately replaced and sealed, and the scalp was closed with sutures. Body temperature was monitored throughout the surgery by a rectal probe; temperature was maintained at 37.0±0.5° C. using a heated pad. […] Testing after injury was as follows: (1) real-time quantitative RT-PCR analysis for TNF-α, IL-1β and IL-6 mRNA expression at 6 h post-injury (n=7 for each group); (2) FluoroJade B (FJB) staining, TNF-α, IL-1β and IL-6 immunohistochemistry, as well as ELISA at 24 h post-injury to assess degenerative neurons and to determine cytokine expression (n=7 for each group). […]

[3] = test system: IL-6-positive cells; experiment: Immunohistochemistry, IL-6-positive cells after CCI injury; details: single-dose 30 mg kg^-1 i.p.; cortical tissue adjacent to contusion core, 1 day post-injury
Procedure: as §1

## O=c1cc(-c2ccccc2)oc2cc(O)c(O)c(O)c12 [baicalein]
[1]
  IL-6 protein concentration, % of concentration in vehicle-treated rats: 67%
[2]
  reduction in IL-1β-positive cells relative to vehicle: 40%
[3]
  reduction in IL-6-positive cells relative to vehicle: 33%
